Values of other authors, collected in patent US10179172B2, “Liquid pharmaceutical formulations for injection comprising yellow 5 or orange G and uses thereof” (EAGLE BIOLOGICS, INC., priority 2013, dated 2019).
Several values for one entry are separate records, joined by “and”; a condition that tells them apart may be missing. Equal values may be shown once.

Assays:
[1] = tested on: respiratory syncytial virus; settings: two Phase III clinical trials, pediatric population
[2] = long-term clinical outcomes

Row | Substance | Reduction of the risk of hospitalization due to respiratory syncytial virus infection [1] | Patients achieving clinical remission [2] [%]
1 | palivizumab: humanized mAb directed against an epitope in the A antigenic site of the F protein of respiratory syncytial virus | 55% and 45% | 
2 | vedolizumab: mAb being developed by Millennium Pharmaceuticals for ulcerative colitis and Crohn's disease |  | ~60
